Data from PMC8474116, “Discovery of Novel Acetamide-Based Heme Oxygenase-1 Inhibitors with Potent In Vitro Antiproliferative Activity” (Journal of Medicinal Chemistry, 2021).

Tests used:
HO-1 [1] = molecular target: T1, HO-1 (Rattus norvegicus, UniProt P06762); test: HO-1 enzymatic activity, rat spleen microsomal fraction (bilirubin formation); format: biochemical; conditions: for IC50 / HO-1 inhibitory activity (in words): rat spleen microsomal fraction; for IC50: mean of triplicate ± SD; for SI (HO-2/HO-1): ratio of HO-2 and HO-1 IC50
T1 construct: selected to use the most native (i.e., closest to in vivo) forms of HO-1 and HO-2; from tissue; host or cells: rat spleen (male Sprague-Dawley), microsomal fraction
T1 sequence (P06762 1-289): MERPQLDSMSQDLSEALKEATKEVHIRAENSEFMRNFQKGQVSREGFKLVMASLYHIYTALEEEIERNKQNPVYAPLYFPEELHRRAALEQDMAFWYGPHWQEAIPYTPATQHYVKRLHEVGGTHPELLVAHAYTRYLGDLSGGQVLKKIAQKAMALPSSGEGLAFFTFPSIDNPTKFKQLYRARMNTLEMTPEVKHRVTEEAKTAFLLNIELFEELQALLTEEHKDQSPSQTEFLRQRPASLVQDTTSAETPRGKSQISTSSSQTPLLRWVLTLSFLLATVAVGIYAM
Method: (§1) HO-1 and HO-2 were obtained, respectively, from the rat spleen and brain as the microsomal fraction prepared by differential centrifugation; the dominance of HO-1 protein in the rat spleen and HO-2 in the rat brain has been well documented.[24] These particular microsomal preparations were selected to use the most native (i.e., closest to in vivo) forms of HO-1 and HO-2. Spleen and brain (Sprague-Dawley rats) microsomal fractions were prepared according to the procedure outlined by Ryter et al.[2] The experiments reported in the present paper complied with the current Italian law and met the guidelines of the Institutional Animal Care and Use Committee of the Ministry of Health (Directorate General for Animal Health and Veterinary Medicines, Italy) “Dosing of enzymatic activities in rat microsomes” (2018–2022), project code 02769.N.VLY. The experiments were performed in male Sprague-Dawley albino rats (150 g body weight and age 45 d). They had free access to water and were kept at room temperature with a natural photoperiod (12 h light–12 h dark cycle). For measuring HO-1 and HO-2 activities, each rat was sacrificed and their spleen and brain were excised and weighed. A homogenate (15%, w/v) of spleens and brains pooled from four rats was prepared in ice-cold HO-homogenizing buffer (50 mM Tris buffer, pH 7.4, containing 0.25 M sucrose) using a Potter–Elvehjem homogenizing system with a Teflon pestle. The microsomal fraction of rat spleen and brain homogenate was obtained by centrifugation at 10 000g for 20 min at 4 °C, followed by centrifugation of the supernatant at 100 000g for 60 min at 4 °C. The 100 000g pellet (microsomes) was resuspended in 100 mM of potassium phosphate buffer, pH 7.8, containing 2 mM MgCl2 with a Potter–Elvehjem homogenizing system. The rat spleen and brain microsomal fractions were divided into equal aliquots, placed into microcentrifuge tubes, and stored at −80 °C for up to 2 months.
(§2) Liver cytosol has been used as a source of biliverdin reductase. Rat liver was perfused through the hepatic portal vein with cold 0.9% NaCl; then, it was cut and flushed with 2 × 20 mL of ice-cold PBS to remove all of the blood. Liver tissue was homogenized in 3 volumes of a solution containing 1.15% KCl w/v and Tris buffer 20 mM, pH 7.8 on ice. Homogenates were centrifuged at 10 000g for 20 min at 4 °C. The supernatant was decanted and centrifuged at 100 000g for 1 h at 4 °C to sediment the microsomes. The 100 000g supernatant was saved and then stored in small amounts at −80 °C after its protein concentration was measured.
(§3) The HO-1 and HO-2 activities were determined by measuring the bilirubin formation using the difference in absorbance at 464–530 nm, as described by Ryter et al.[2] Reaction mixtures (500 μL) consisted of 20 mM of Tris–HCl, pH 7.4, (1 mg/mL) microsomal extract, 0.5–2 mg/mL of biliverdin reductase, 1 mM of NADPH, 2 mM of glucose 6-phosphate (G6P), 1 U of G6P dehydrogenase, 25 μM of hemin, and 10 μL of DMSO (or the same volume of DMSO solution of test compounds to a final concentration of 100, 10, and 1 μM). Incubations were carried out for 60 min at 37 °C in a circulating water bath in the dark. Reactions were stopped by adding the same volume of chloroform. After recovering the chloroform phase, the amount of bilirubin formed was measured with a double-beam spectrophotometer as OD464–530 nm (extinction coefficient, 40 mM/cm^–1 for bilirubin). One unit of the enzyme was defined as the amount of enzyme catalyzing the formation of 1 nmol of bilirubin/mg protein/h.

HO-2 = molecular target: T2, HO-2 (Rattus norvegicus, UniProt P23711); test: HO-2 enzymatic activity, rat brain microsomal fraction (bilirubin formation); format: biochemical; conditions: mean of triplicate ± SD
T2 construct: selected to use the most native (i.e., closest to in vivo) forms of HO-1 and HO-2; from tissue; host or cells: rat brain (male Sprague-Dawley), microsomal fraction
T2 sequence (P23711 1-315): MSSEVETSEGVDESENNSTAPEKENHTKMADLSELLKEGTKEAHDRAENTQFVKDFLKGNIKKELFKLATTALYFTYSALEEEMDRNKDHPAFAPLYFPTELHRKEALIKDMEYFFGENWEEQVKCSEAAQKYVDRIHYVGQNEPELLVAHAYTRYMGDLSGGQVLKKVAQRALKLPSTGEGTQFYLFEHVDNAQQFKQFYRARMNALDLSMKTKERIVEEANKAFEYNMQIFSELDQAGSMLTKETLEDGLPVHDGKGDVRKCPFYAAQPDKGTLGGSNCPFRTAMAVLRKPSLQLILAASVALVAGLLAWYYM
Method: as §1, §2, §3

U87MG cells = test: MTT cell viability assay, U87MG; format: cell-based, human; conditions: 48 h, at both concentrations 1 and 10 μM
Method: (§4) Experiments were performed on human GBM cell lines U87MG (ATCCC number #HTB-14) and A172 (ATCCC #CRL-1620) on DU145 (ATCC HTB-81) and human lung adenocarcinoma A549 (ATCC CCL-185-LUC2). All cell lines were obtained from the American Type Culture Collection (ATCC, Rockville, MD). Cells were grown in Dulbecco’s modified Eagle’s medium (DMEM) supplemented with 10% of heat-inactivated fetal bovine serum (FBS), 100 U/mL of penicillin, and 100 μg/mL of streptomycin (Sigma-Aldrich, Steinheim, Germany). Cells were incubated at 37 °C in a humidified atmosphere with 5% CO2.
(§5) The effect of selected compounds 7i and 7l–p on cell viability was assessed by performing an MTT assay. Cells were seeded into 96-well plates at a density of 7 × 10^3 cells/well in 100 μL of culture medium. After 24 h, cells were treated with selected compounds at three different concentrations (1 μM, 10 μM, and 50 μM) for 48 h. Following treatments, 0.5 mg/mL of 3-[4,5-dimethylthiazol-2-yl]-2,5-diphenyltetrazolium bromide (MTT) (Sigma-Aldrich) was added to each well and incubated for 4 h at 37 °C. Finally, dimethyl-sulfoxide (DMSO) was used to dissolve formazan salts, and absorbance was measured at 570 nm in a microplate reader (Biotek Synergy-HT). Eight replicate wells were used for each group.

A172 cells = test: MTT cell viability assay, A172; format: cell-based, human; conditions: 48 h
Method: as §4, §5

HO-1 [2] = test: HO-1 protein expression by Western blot, A172; format: cell-based, human; conditions: A172, 10 μM, 48 h
Method: Proteins were extracted from total cell lysate, as previously described.[61] Briefly, cell lines were added to a buffer containing 20 mM Tris (pH 7.4), 2 mM EDTA, 0.5 mM EGTA, 50 mM mercaptoethanol, and […] sucrose supplemented with phosphatase and protease inhibitor cocktails (Roche Diagnostics, Monza, Italy). Subsequently, protein samples were sonicated twice for 20′ by using an ultrasonic probe, followed by centrifugation at 10 000g for 10 min at 4 °C. Sample proteins (30 μg) were diluted in 4X NuPage LDS sample buffer (Invitrogen, NP0007), heated at 80 °C for 5 min, and then separated on a Biorad Criterion XT 4–15% Bis–Tris gel (BIO-RAD) by electrophoresis and then transferred to a PVDF membrane (BIO-RAD). Blots were blocked using the Odyssey Blocking Buffer (LI-COR Biosciences) and probed with appropriate antibodies: HO-1 antibody (GeneTex GTX101147), goat polyclonal anti-VEGF (cat. no. sc-1836, Santa Cruz Biotechnology), and rabbit polyclonal anti-β-tubulin (cat n.sc-9104, Santa Cruz Biotechnology) and β-actin antibody (GeneTex GTX109639).
The secondary antibodies goat antirabbit (Odyssey, #926-32211; Odyssey #926-68021) and donkey antigoat IRDye 800CW (cat #926-32214; Li-Cor Biosciences) were used at 1:7000. Blots were scanned, and densitometric analysis was performed with the Odyssey Infrared Imaging System. Values were normalized to β-actin and to β-tubulin.

A549 cells = test: MTT cell viability assay, A549; format: cell-based, human; conditions: 48 h, 10 μM
Method: as §4, §5

DU145 cells = test: MTT cell viability assay, DU145; format: cell-based; conditions: 48 h, 1 μM and 10 μM
Method: as §4, §5

| Compound | IC50 (HO-1 [1]) | melting point | also measured |
| --- | --- | --- | --- |
| O=C(Cn1ccnc1)Nc1ccccc1 [7a] | 110 ± 3.1 µM | – | – |
| O=C(Cn1ccnc1)Nc1cccc(Br)c1 [7c, N-(3-Bromophenyl)-2-(1H-imidazol-1-yl)acetamide] | 35.7 ± 1.2 µM | 158 to 162 °C | – |
| O=C(Cn1ccnc1)Nc1ccc(I)cc1 [7d, 2-(1H-Imidazol-1-yl)-N-(4-iodophenyl)acetamide] | 8.34 ± 0.21 µM | 222 to 225 °C | – |
| CN(C(=O)Cn1ccnc1)c1ccc(I)cc1 [7e, 2-(1H-Imidazol-1-yl)-N-(4-iodophenyl)-N-methylacetamide] | 96.1 ± 1.44 µM | – | – |
| O=C(Cn1ccnc1)NCc1ccccc1 [7f] | 57.6 ± 2.38 µM | – | fold decrease in potency with respect to 4 (HO-1) (HO-1 [1]): 2 fold |
| CN(Cc1ccccc1)C(=O)Cn1ccnc1 [7g, N-Benzyl-2-(1H-imidazol-1-yl)-N-methylacetamide] | 50.6 ± 1.84 µM | 106 to 111 °C | – |
| O=C(Cn1ccnc1)N(Cc1ccccc1)Cc1ccccc1 [7h, N,N-Dibenzyl-2-(1H-imidazol-1-yl)acetamide] | 64.8 ± 1.56 µM | 99 to 102 °C | – |
| CC(=O)N(CCCn1ccnc1)Cc1ccccc1 [11a, N-(3-(1H-Imidazol-1-yl)propyl)-N-benzylacetamide] | 224 ± 8.1 µM | – | HO-1 inhibitory activity (in words) (HO-1 [1]): almost inactive |
| O=C(c1ccccc1)N(CCCn1ccnc1)Cc1ccccc1 [11b, N-(3-(1H-Imidazol-1-yl)propyl)-N-benzylbenzamide] | 31 ± 1.74 µM | – | HO-1 inhibitory activity (in words) (HO-1 [1]): comparable to the hit compound 4 |
| O=C(Cc1ccccc1)N(CCCn1ccnc1)Cc1ccccc1 [11c, N-(3-(1H-Imidazol-1-yl)propyl)-N-benzyl-2-phenylacetamide] | 32 ± 1.48 µM | – | HO-1 inhibitory activity (in words) (HO-1 [1]): comparable to the hit compound 4 |

Continued, in another order:

| IC50 (HO-1 [1]) | melting point | Compound | also measured |
| --- | --- | --- | --- |
| – | 117 to 119 °C | CN(C(=O)Cn1ccnc1)c1ccccc1 [7b, 2-(1H-Imidazol-1-yl)-N-methyl-N-phenylacetamide] | – |
| 11.4 ± 0.97 µM | 134 to 136 °C | CN(C(=O)Cn1ccnc1)C(c1ccccc1)C1CCCC1 (stereo not drawn) [7j, N-(Cyclopentyl(phenyl)methyl)-2-(1H-imidazol-1-yl)-N-methylacetamide] | fold less potent than compound 7i (HO-1) (HO-1 [1]): 13 fold |
| 26.8 ± 1.61 µM | 130 to 133 °C | CN(C(=O)Cn1ccnc1)C(c1ccccc1)C1CCCCC1 (stereo not drawn) [7k, N-(Cyclohexyl(phenyl)methyl)-2-(1H-imidazol-1-yl)-N-methylacetamide] | fold less potent than compound 7i (HO-1) (HO-1 [1]): 30 fold |
| 0.9 ± 0.03 µM | 82 to 83 °C | CN(C(=O)Cn1ccnc1)C(c1ccccc1)c1cccc(Br)c1 (stereo not drawn) [7m, N-((3-Bromophenyl)(phenyl)methyl)-2-(1H-imidazol-1-yl)-N-methylacetamide] | HO-1 vs HO-2 selectivity (in words) (HO-1 [1]): superimposable HO-1 and HO-2 IC50 values; SI (HO-2/HO-1) (HO-1 [1]): 1.2; IC50 (HO-2): 1.1 ± 0.04 µM; cell viability reduction (U87MG cells): more than 30%; cell viability reduction (in words) (A172 cells; all tested concentrations (1, 10, 50 μM)): weak activity; HO-1 protein expression (in words) (HO-1 [2]): enhanced its levels |
| 8 ± 0.39 µM | 120 to 121 °C | CN(C(=O)Cn1ccnc1)C(c1ccccc1)c1ccc(OCc2ccc(Br)cc2)cc1 (stereo not drawn) [7p, N-((4-((4-Bromobenzyl)oxy)phenyl)(phenyl)methyl)-2-(1H-imidazol-1-yl)-N-methylacetamide] | fold less potent than 7o (HO-1) (HO-1 [1]): about 6.5 fold; fold less potent than compound 7i (HO-1) (HO-1 [1]): ~9 fold; fold more selective for the inducible isoform (HO-1 over HO-2) (HO-1 [1]): 3 fold; SI (HO-2/HO-1) (HO-1 [1]): 3.1; IC50 (HO-2): 24.71 ± 0.14 µM; cell viability reduction (U87MG cells): around 20%; cell viability reduction (in words) (A172 cells; 10 μM): milder activity; cell viability reduction (in words) (A172 cells; 50 μM): only at 50 μM; cell viability reduction (in words) (A549 cells): weak effect; cell viability reduction (in words) (DU145 cells): had efficacies |
